In patent publication US12570599B2, “Process for preparing acyl-capped 3-hydroxycarboxylic acids and their salts and esters” (KetoLipix Therapeutics GmbH, priority 2019, dated 2026):

How the values were obtained:
[1] = Cleavage experiments in FaSSGF medium simulating the stomach, with or without pancreatin (Panzytrat); assay type: in vitro ADME; settings: in the presence or absence of pancreatin
From the text: (§1) Esters tested: • 3-Acetylaceto-BHB ethyl ester • 3-Acetylaceto-BHB decyl ester • 3-Acetylaceto-BHB oleyl ester • 3-Acetylaceto-BHB cetyl ester • 3-Acetylaceto-BHB-margaryl ester • 3-Acetylaceto-BHB stearyl ester • 3-Acetylaceto-BHB behenyl ester • 3-Acetylaceto-BHB melissyl ester • 3-Acetylaceto-BHB palmitoyl ester • 3-Acetylaceto-BHB linoleyl ester For the cleavage experiments under near-body conditions two media are investigated: • FaSSGF, which simulates the stomach • FaSSIF, which simulates the intestinal tract Both media are from the company Biorelevant®, Ltd. in Great Britain. In addition, in some experiments porcine pancreas is added (Panzytrat® 40,000, Fa. Allergan).
(§2) Under FaSSIF conditions, a lower conversion using Panzytrat® takes place.

[2] = test system: pancreatin (Panzytrat 40,000); experiment: Cleavage experiments with pancreatin in water, followed by acid number; assay type: in vitro ADME, porcine; settings: each ester in its pure form, 50° C.
Description: 2 g of each of the 3-acetoacetate-BHB ethyl esters prepared as described above and the 3-acetoacetate-BHB fatty alcohol esters prepared as described above are dissolved in 50 g water and 0.5 g (1% by weight) pancreatin is added. The pancreatin is used in the form of the commercially available product Panzytrat® 40,000 from the Allergan company. The whole mixture is stirred on a hot plate at 50° C.; the course of the reaction is determined and monitored by continuously recording the acid number over time. […] This is confirmed by corresponding analytics. The experiment proves that both the 3-acetylaceto-BHB ethyl ester according to the invention and the functionalized derivatives (i. e. 3-acetylaceto-BHB fatty alcohol esters) are suitable physiological precursors for 3-hydroxybutyric acid for the corresponding keto body therapies. The experiments are repeated and verified using each ester in its pure form.

[3] = Cleavage experiments in FaSSIF medium simulating the intestinal tract, with or without pancreatin (Panzytrat); assay type: in vitro ADME; settings: in the presence or absence of pancreatin
From the text: as §1, §2

[4] = several grams taken, patients; cited from earlier work

Structure (SMILES) | cleavage in gastric medium [1] | cleavage by pancreatin [2] | cleavage in intestinal medium [3] | duration of ketosis [4]
CCOC(=O)CC(C)OC(=O)CC(C)=O (stereo not shown) [3-acetylaceto-BHB ethyl ester, 3-acetylacetobutyric acid ethyl ester] | cleavage to 3-BHB in the free form | cleaved by pancreatin | cleavage to 3-BHB in the free form | 
CC(O)CC(=O)O (stereo not shown) [3-hydroxybutyric acid] |  |  |  | three to four
